Measured values from patent publication US7399888B2, “Anticonvulsant compounds” (priority 2006, dated 2008).

Tests used:
NMRI mice [1] = test: subcutaneous pentylenetetrazole (scPTZ) induced seizure model; type: in vivo; details: tested in mixture form
Method: (§1) Male NMRI albino mice weighing 19-22 g were housed in an environmentally regulated room on a 12 h light: 12 h dark cycle with 25±1° C. and had free access to food and water. The use of animals in experimental protocol was approved by the research committee of the ICCS, University of Karachi, in accordance with the international guidelines for the care and use of laboratory animals. The anticonvulsant activity of compounds in mixture form was determined after intraperitoneal administration to NMRI mice weighing 19-22 g. Maximal electroshock (MES) and subcutaneous pentylenetetrazole (scPTZ) induced seizure models were used to test the anticonvulsant properties of compounds. […] Protection against HLTE in MEST predicts the ability of a testing material to prevent the spread of seizures discharge from the epileptic focus in brain in additions effectiveness in MEST correlates with efficacy in suppressing the generalized tonic-clonic and partial seizures. […] Anticonvulsant activity in the scPTZ test identifies compounds that can raise seizure threshold in the brain.

NMRI mice [2] = test: Maximal electroshock (MES) induced seizure model; type: in vivo; details: tested in mixture form
Method: as §1

`CC(=O)/C=C1\C=C(C)CC(C)(C)C1` [Isoxylitone B, 2-Propanone, 1-(3,5,5-trimethyl-2-cyclohexen-1-ylidene)-, (1Z)] was tested, and the “prevention of convulsions in chemically-induced seizure model” value (NMRI mice [1]) was “able to prevent convulsions” and the “prevention of convulsions in electrically-induced seizure model” value (NMRI mice [2]) was “able to prevent convulsions”.

For `CC(=O)/C=C1/C=C(C)CC(C)(C)C1` [Isoxylitone A, 2-Propanone 1-(3,5,5-trimethyl-2-cyclohexen-1-ylidene) (1E)], the “prevention of convulsions in chemically-induced seizure model” value (NMRI mice [1]) was “able to prevent convulsions” and the “prevention of convulsions in electrically-induced seizure model” value (NMRI mice [2]) was “able to prevent convulsions”.
